Earlier results in US9650678B2, “Methods for identifying an increased risk of anthracycline-related cardiotoxicity” (CITY OF HOPE, priority 2012, dated 2017).

What was measured:
[1] = factor that reflects the drug's cardiotoxic potential
[2] = tested on: patients; details: package insert, doxorubicin hydrochloride injection (Teva)
[3] = target: T1, CBR1 (Homo sapiens, UniProt P16152)
T1 sequence (P16152 1-277): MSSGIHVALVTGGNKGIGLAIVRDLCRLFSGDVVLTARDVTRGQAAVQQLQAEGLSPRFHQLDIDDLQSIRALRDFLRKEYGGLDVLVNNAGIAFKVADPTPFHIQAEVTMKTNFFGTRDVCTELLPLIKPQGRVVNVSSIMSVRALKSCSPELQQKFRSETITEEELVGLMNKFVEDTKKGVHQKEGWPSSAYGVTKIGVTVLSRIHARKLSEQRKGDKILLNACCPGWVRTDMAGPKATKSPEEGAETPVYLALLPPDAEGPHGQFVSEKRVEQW

[4] = tested on: CBR3

SMILES: COc1cccc2c1C(=O)c1c(O)c3c(c(O)c1C2=O)C[C@@](O)(C(C)=O)C[C@@H]3O[C@H]1C[C@H](N)[C@H](O)[C@H](C)O1 [Daunomycin]
- Conversion factor to Doxorubicin Isotoxic Dose [1]: 0.833 (⅚)

SMILES: COc1cccc2c1C(=O)c1c(O)c3c(c(O)c1C2=O)C[C@@](O)(C(=O)CO)C[C@@H]3O[C@H]1C[C@H](N)[C@H](O)[C@H](C)O1 [Doxorubicin]
- Conversion factor to Doxorubicin Isotoxic Dose [1]: 1
- total cumulative dose in excess of which risk of potentially fatal congestive heart failure increases rapidly [2]: greater than 400 mg/m^2

SMILES: COc1cccc2c1C(=O)c1c(O)c3c(c(O)c1C2=O)C[C@@](O)(C(=O)CO)C[C@@H]3O[C@H]1C[C@H](N)[C@@H](O)[C@H](C)O1 [Epirubicin]
- Conversion factor to Doxorubicin Isotoxic Dose [1]: 0.67 (⅔)

SMILES: CC(=O)[C@]1(O)Cc2c(O)c3c(c(O)c2[C@@H](O[C@H]2C[C@H](N)[C@H](O)[C@H](C)O2)C1)C(=O)c1ccccc1C3=O [Idarubicin]
- Conversion factor to Doxorubicin Isotoxic Dose [1]: 5

SMILES: COc1cccc2c1C(=O)c1c(O)c3c(c(O)c1C2=O)C[C@@](O)([C@@H](O)CO)C[C@@H]3O[C@H]1C[C@H](N)[C@H](O)[C@H](C)O1 [doxorubicinol]
- rate of doxorubicinol synthesis, fold higher [3]: 1.5 fold
- synthesis of doxorubicinol, times faster [4]: 2.6 times
